Experimental findings from US20250237649A1 (priority 2021, published 2025) are described below.

Assay [1] deals with T1, Hip1 (Mycobacterium tuberculosis, UniProt P9WHR3).
T1 sequence (P9WHR3 31-520): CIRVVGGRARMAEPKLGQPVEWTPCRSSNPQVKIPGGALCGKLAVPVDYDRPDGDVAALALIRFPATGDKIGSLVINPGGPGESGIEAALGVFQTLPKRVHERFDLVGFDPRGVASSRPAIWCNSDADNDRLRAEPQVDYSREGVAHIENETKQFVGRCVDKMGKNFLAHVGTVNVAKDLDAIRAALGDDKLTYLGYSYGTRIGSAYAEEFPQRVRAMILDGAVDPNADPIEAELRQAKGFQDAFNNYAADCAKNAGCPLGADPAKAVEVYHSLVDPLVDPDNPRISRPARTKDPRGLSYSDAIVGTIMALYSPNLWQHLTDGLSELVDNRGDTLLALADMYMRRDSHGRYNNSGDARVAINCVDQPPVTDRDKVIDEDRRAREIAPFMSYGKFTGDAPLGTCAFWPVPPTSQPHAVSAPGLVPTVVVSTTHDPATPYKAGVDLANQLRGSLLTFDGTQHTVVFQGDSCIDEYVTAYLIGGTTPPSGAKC
The assay is described as follows: Km determination of Hip1 substrates (Michaelis-Menten). It counts as biochemical.

In assay [2] the target is T1, Hip1. The assay is described as follows: Inhibition of Hip1 (Ki determination). It counts as biochemical.
The mark [3] stands for this setting: read-out: Km (fluorescent substrate).

Like-named read-outs stand apart in the source and are kept apart here. Residues, ends and D or L forms follow the SMILES beside them. *: point of attachment. Dabcyl = CN(C)c1ccc(N=Nc2ccc(C(=O)*)cc2)cc1; EDANS = O=S(=O)(O)c1cccc2c(NCCN*)cccc12; pNA = O=[N+]([O-])c1ccc(N*)cc1; Cbz = O=C(OCc1ccccc1)*

Regarding `CC(C)C[C@H](NC(=O)CNC(=O)[C@H](CCCNC(=N)N)NC(=O)[C@H](CCCNC(=N)N)NC(=O)[C@H](C)NC(=O)[C@H](CCC(=O)O)NC(=O)c1ccc(N=Nc2ccc(N(C)C)cc2)cc1)C(=O)N[C@@H](CCC(=O)NCCNc1cccc2c(S(=O)(=O)O)cccc12)C(=O)N[C@@H](CCCNC(=N)N)C(=O)O` [UFNG1] (Dabcyl-EARRGLE(EDANS)R-OH), the Km in assay [1] (setting [3]) came to 17.5 µM. In turn, `COC(=O)C(=O)[C@H](C[C@@H]1CCNC1=O)NC(=O)[C@H](CCCCN)NC(=O)[C@H](Cc1ccccc1)NC(=O)OCc1ccccc1` [Inhibitor Compound 2, Cbz-Phe-Lys-Glnlac-CO—CO2Me] registered a Ki in assay [2] of 0.117 ± 0.015 nM.

Regarding `CC(C)C[C@H](NC(=O)[C@H](CCCCN)NC(=O)[C@H](Cc1ccccc1)NC(=O)OCc1ccccc1)C(=O)Nc1ccc([N+](=O)[O-])cc1` [Cbz-Phe-Lys-Leu-pNa] (Cbz-Phe-Lys-Leu-pNA), the Km in assay [1] (three independent determinations averaged, read-out: Km (chromogenic substrate)) came out at 0.421 µM. Turning to `CC(C)C[C@H](NC(=O)CNC(=O)[C@H](CCC(N)=O)NC(=O)[C@H](CCCCN)NC(=O)[C@H](Cc1ccccc1)NC(=O)[C@H](CCC(=O)O)NC(=O)c1ccc(N=Nc2ccc(N(C)C)cc2)cc1)C(=O)N[C@@H](CCC(=O)NCCNc1cccc2c(S(=O)(=O)O)cccc12)C(=O)N[C@@H](CCCNC(=N)N)C(=O)O` [UFNG2, Dabcyl-Glu-Phe-Lys-Gln-Gly-Leu-Glu-(EDANS)-Arg] (Dabcyl-EFKQGLE(EDANS)R-OH), the Km in assay [1] (setting [3]) is 37.6 µM.
